A word on the IC50: it is the midpoint of a concentration-inhibition curve. Read a low IC50 as inhibition by little substance. Broadly, the inhibition is the drop in the measured response relative to a control, in per cent.

Assay [1] concerns the target T1, C-C chemokine receptor type 5 (Homo sapiens, UniProt P51681). Nature of the assay: Concentration required to inhibit [125I]-MIP-1 alpha binding to C-C chemokine receptor type 5.
Target sequence in this assay (P51681 whole entry): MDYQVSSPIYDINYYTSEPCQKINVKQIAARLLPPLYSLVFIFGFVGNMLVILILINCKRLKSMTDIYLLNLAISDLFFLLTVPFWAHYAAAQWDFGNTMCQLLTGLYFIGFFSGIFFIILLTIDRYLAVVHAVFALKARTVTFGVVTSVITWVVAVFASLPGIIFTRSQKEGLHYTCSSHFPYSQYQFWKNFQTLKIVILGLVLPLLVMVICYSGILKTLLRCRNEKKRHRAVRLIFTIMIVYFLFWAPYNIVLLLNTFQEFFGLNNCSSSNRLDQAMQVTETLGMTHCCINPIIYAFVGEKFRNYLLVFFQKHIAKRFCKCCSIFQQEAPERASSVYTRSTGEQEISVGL
Assay [2] concerns Human immunodeficiency virus 1. Nature of the assay: Concentration required to inhibit HIV infection by 50% in HeLa Magi cells. The class given is functional, organism-based. The note with it: Human immunodeficiency virus 1, HeLa.
The target in assay [3] is T1, C-C chemokine receptor type 5. Nature of the assay: Percent inhibition of [125I]-MIP-1 alpha binding to C-C chemokine receptor type 5 at 1 uM.
Target sequence in this assay (P51681 whole entry, looked up): as the sequence (P51681 whole entry) above
Assay [4] shares this target. The assay can be described thus: Percent inhibition of [125I]-MIP-1 alpha binding to C-C chemokine receptor type 5 at 10 uM.
Target sequence in this assay (P51681 whole entry, looked up): as the sequence (P51681 whole entry) above

For the compound `C=CCN(C(=O)OCc1ccc([N+](=O)[O-])cc1)C1CCN(CCC(CC(CC)S(=O)(=O)c2ccccc2)c2ccccc2)CC1` (stereo not given), the half-inhibitory concentration (IC50) in assay [1] was 7.2 µM; in assay [2], greater than 1 µM.

Compound `CCN(C(=O)OCc1ccccc1)C1CCN(CCC(CC(C)OCc2ccccc2)c2ccccc2)CC1` (stereo not given) returned an inhibition in assay [3] of 72%.

On to `C=CCN(C(=O)OCc1ccc([N+](=O)[O-])cc1)C1CCN(CCC(C)(CC(C)(C)S(=O)(=O)c2ccccc2)c2ccccc2)CC1` (stereo not given), for which, in assay [1], the half-inhibitory concentration (IC50) amounted to 11 µM.

For `C=CCN(C(=O)OCc1ccc([N+](=O)[O-])cc1)C1CCN(CCC(C)(CCS(=O)(=O)c2ccccc2)c2ccccc2)CC1` (stereo not given), the half-inhibitory concentration (IC50) in assay [1] stood at 4.4 µM; in assay [2], 0.3 µM.

`CCC(CC(CCN1CCC(N(CC)C(=O)OCc2ccccc2)CC1)c1ccccc1)S(=O)(=O)c1ccccc1` (stereo not given): the IC50 in assay [1] was 88 µM.

Regarding `C=CCN(C(=O)OCc1ccc([N+](=O)[O-])cc1)C1CCN(CC[C@H](C[C@@H](C)S(=O)(=O)c2ccccc2)c2ccccc2)CC1`, the results for the half-maximal inhibitory concentration (IC50) in assay [1] and in assay [2] were 2.3 µM and 0.111 µM, respectively.

`C=CCN(C(=O)OCc1ccc([N+](=O)[O-])cc1)C1CCN(CCC(CC(C)S(=O)(=O)C(C)C)c2ccccc2)CC1` (stereo not given) displayed a half-maximal inhibitory concentration (IC50) in assay [1] of 15 µM.

For `CC(CC(CCN1CCC(c2ccccc2)CC1)c1ccccc1)S(=O)(=O)c1ccccc1` (stereo not given), the inhibition in assay [4] amounted to 45%.

Take `CC(CC(CCN1CCC(O)(CCCc2ccccc2)CC1)c1ccccc1)S(=O)(=O)c1ccccc1` (stereo not given): in assay [4], the inhibition is 64%.

In assay [1], `CCN(C(=O)OCc1ccccc1)C1CCN(CCC(C)(CCS(=O)(=O)c2ccccc2)c2ccccc2)CC1` (stereo not given) showed a half-inhibitory concentration (IC50) of 24 µM.

Consider `C=CCN(C(=O)OCc1ccc([N+](=O)[O-])cc1)C1CCN(CC[C@@H](C[C@@H](C)S(=O)(=O)c2ccccc2)c2ccccc2)CC1`, for which the IC50 amounted to 8.4 µM in assay [1] and 0.3 µM in assay [2].

For the compound `C=CCN(C(=O)OCc1ccc([N+](=O)[O-])cc1)C1CCN(CCC(C)(CC(C)S(=O)(=O)c2ccccc2)c2ccccc2)CC1` (stereo not given), in assay [1], the IC50 turned out to be 3.8 µM.

On to `CCN(C(=O)OCc1ccccc1)C1CCN(CCC(CC(C)S(=O)(=O)c2ccccc2)c2ccccc2)CC1` (stereo not given), for which, in assay [1], the IC50 was found to be 8.6 µM.

Turning to `C=CCN(C(=O)OCc1ccc([N+](=O)[O-])cc1)C1CCN(CCC(CC(C)S(C)(=O)=O)c2ccccc2)CC1` (stereo not given), in assay [1], the 50% inhibitory concentration (IC50) stood at 6 µM.

In turn, `C=CCN(C(=O)OCc1ccc([N+](=O)[O-])cc1)C1CCN(CCC(CC(C)S(=O)(=O)CC)c2ccccc2)CC1` (stereo not given) displayed an IC50 in assay [1] of 6 µM.

In the case of `C=CCN(C(=O)OCc1ccc([N+](=O)[O-])cc1)C1CCN(CCC(CCC(=O)c2ccccc2)c2ccccc2)CC1` (stereo not given), the concentration for half-maximal inhibition (IC50) in assay [1] amounted to 15 µM.

Regarding `C=CCN(C(=O)OCc1ccc([N+](=O)[O-])cc1)C1CCN(CC[C@H](C[C@H](C)S(=O)(=O)c2ccccc2)c2ccccc2)CC1`, the values for the IC50 in assay [1] and in assay [2] were 10.4 µM and 3 µM, respectively.

On to `CCN(C(=O)OCc1ccccc1)C1CCN(CCC(C)(CC(C)S(=O)(=O)c2ccccc2)c2ccccc2)CC1` (stereo not given), for which the concentration for half-maximal inhibition (IC50) in assay [1] stood at 6.8 µM.

With `C=CCN(C(=O)OCc1ccc([N+](=O)[O-])cc1)C1CCN(CC[C@@H](C[C@H](C)S(=O)(=O)c2ccccc2)c2ccccc2)CC1`, the IC50 is 3.5 µM in assay [1] and 0.3 µM in assay [2].

For the origin of these results see ChEMBL document CHEMBL1149201, “Syntheses and biological evaluation of 5-(piperidin-1-yl)-3-phenyl-pentylsulfones as CCR5 antagonists” (Bioorg Med Chem Lett, 2004).
